According to patent US20250295639A1, “METHODS FOR TREATING HEART DISEASES” (Cytokinetics, Incorporated, priority 2024, published 2025):
“And” between values parts separate entries of the source, which are not always exact repeats. Identical values can stand only once.

Assays:
Format in all cases: in vivo, human
[1] = system: patients with symptomatic oHCM; experiment: SEQUOIA-HCM secondary analysis: clinical response / responder analyses (NYHA class, KCCQ-CSS, hemodynamic response, exercise capacity)
Excerpt: A secondary objective of this trial was to evaluate the effect of aficamten on patient health status, as determined by changes in the Kansas City Cardiomyopathy Questionnaire-Clinical Summary Score (KCCQ-CSS) from baseline to Week 12 and Week 24. A further secondary objective of this trial was to evaluate the effect of aficamten on New York Heart Association (NYHA) Functional Classification, as determined by the proportion of patients with ≥1 class improvement in NYHA Functional Class from baseline to Week 12 and Week 24. An exploratory objective of this trial was to evaluate the effect of aficamten on exercise capacity and functional class, as determined by comparing with baseline, the number of patients at Week 24 achieving either (1) change from baseline of ≥1.5 mL/kg/min in pVO2 AND ≥1 class improvement in NYHA Functional Class; or (2) Change from baseline of ≥3.0 mL/kg/min in pVO2 AND no worsening of NYHA Functional Class. A further exploratory objective of this trial was to evaluate the effect of aficamten on patient response over time, as determined by (1) […]; (2) proportion of patients with resting LVOT-G<30 mmHg, post-Valsalva LVOT-G<50 mmHg, […]; and (3) proportion of patients with resting LVOT-G<30 mmHg, post-Valsalva LVOT-G<50 mmHg, […] Secondary Analysis of the Results of the SEQUOIA-HCM Study. In a sub-analysis of the results of Example 8 (i.e, the results of the SEQUOIA-HCM Study) we sought to comprehensively characterize the broad clinical impact of aficamten with respect to responder analyses across a number of clinically relevant, patient-centric outcome domains. […] For patients with missing data, the last available observation (week 8 to week 20) was used. Patients with no available data on or after week 8 were classified as not meeting the efficacy criteria. Patients were then classified according to the number of efficacy outcome definitions that they met. Baseline characteristics were summarized using means and standard deviations or median and interquartile for continuous normal and skewed variables, as well as counts and percentages for categorical variables. These characteristics were compared across groups using trend tests (linear regression, chi-squared tests of trend, and Cuzick's non-parametric trend tests). Proportions of patients meeting each efficacy outcome definition were compared between treatment groups using chi-squared tests, and linear regression was used to assess the treatment effect of aficamten vs placebo on change in efficacy outcomes while also adjusting for baseline value, CPET modality at baseline and beta blocker use at baseline. No adjustments were made for multiple comparisons. Two-sided p-values less than 0.05 were considered statistically significant.

[2] = system: patients with symptomatic oHCM; experiment: SEQUOIA-HCM: patient-reported health status KCCQ-OSS and SAQ-SS
Experimental: Effect of Aficamten on Patient-Reported Health Status in Obstructive Hypertrophic Cardiomyopathy. Participants were randomized to aficamten or placebo with standard-of-care therapy for 24 weeks followed by a 4-week washout period. The Kansas City Cardiomyopathy Questionnaire (KCCQ) and Seattle Angina Questionnaire (SAQ) were administered at each study visit. Changes in mean KCCQ Overall Summary score (KCCQ-OSS) and SAQ Summary score (SAQ-SS) from baseline to week 24 were compared by treatment group using linear regression, adjusting for randomization strata. Proportions of patients with clinically important changes were compared.

[3] = system: patients with symptomatic oHCM; experiment: SEQUOIA-HCM substudy: post-exercise oxygen uptake recovery (VO2Rec)
Experimental: Patients were randomized 1:1 to aficamten or placebo for 24 weeks with a primary endpoint of pVO2. For this analysis, VO2Rec delay was measured as the time taken after exercise cessation for VO2 to decline by >0%, 12.5% (t12.5%), 25%, or 50% of pVO2. Change in t12.5% from baseline (BL) to week 24 (W24) was the primary endpoint. […]

[4] = 142 patients treated with aficamten
[5] = of the 101 aficamten symptomatic responders
[6] = aficamten arm, week 28 compared with week 24
[7] = LSM treatment difference vs placebo
[8] = change from baseline to week 24

CCc1nc(-c2ccc3c(c2)CC[C@H]3NC(=O)c2cnn(C)c2)no1 [aficamten, (R)—N-(5-(5-ethyl-1,2,4-oxadiazol-3-yl)-2,3-dihydro-1H-inden-1-yl)-1-methyl-1H-pyrazole-4-carboxamide]
patients with moderate to large KCCQ-CSS improvement of ≥10 to <20 ([1]; 142 patients on aficamten): 27%
patients with no change or a decrease in KCCQ-CSS score (<5 points) ([1]; 142 patients on aficamten): 37%
patients with small KCCQ-CSS improvement of ≥5 to <10 ([1]; 142 patients on aficamten): 13%
patients with very large KCCQ-CSS change of ≥20 ([1]; 142 patients on aficamten): 22%
patients improved from NYHA class II to I [1, 4]: 39%
patients improved from NYHA class III to I [1, 4]: 11%
patients improved from NYHA class III to II [1, 4]: 9%
patients with no change in NYHA class [1, 4]: 38%
patients worsened from NYHA class II to class III [1, 4]: 2%
>1.5 mL/kg/min increase in pVO2 and ≥1 NYHA class improvement or ≥3.0 mL/kg/min increase in pVO2 and no worsening of NYHA class ([1]; Aficamten (N = 142)): 60 (42) n (%)
≥1.5 mL/kg/min increase in pVO2 and ≥1 NYHA class improvement ([1]; Aficamten (N = 142)): 44 (31) n (%)
≥3.0 mL/kg/min increase in pVO2 and no worsening of NYHA class ([1]; Aficamten (N = 142)): 37 (26) n (%)
≥3.0 mL/kg/min increase in pVO2 and ≥1 NYHA class improvement ([1]; Aficamten (N = 142)): 21 (15) n (%)
responder endpoint, difference vs. placebo ([1]; Week 24): 28.7%
responder endpoint, number needed to treat (NNT) ([1]; Week 24): 3
patients with improvement of ≥1 NYHA functional class and/or ≥10 point increase in KCCQ-CSS (symptomatic response) ([1]; aficamten group, week 2): 36%
patients with complete hemodynamic response (rest gradient <30 mmHg and Valsalva gradient <50 mmHg) ([1]; aficamten group, week 8): 70%
patients with improvement of ≥1 NYHA functional class and/or ≥10 point increase in KCCQ-CSS (symptomatic response) ([1]; aficamten group, week 8): 58%
patients achieving ≥1 of the 4 prespecified clinical response measures ([1]; aficamten group, week 24): 97%
patients improved in 2 clinical response measures ([1]; aficamten group, week 24): 26%
patients improved in 3 clinical response measures ([1]; aficamten group, week 24): 39%
patients improved in all 4 clinical response measures ([1]; aficamten group, week 24): 23%
patients who achieved one clinical response measure ([1]; aficamten group, week 24): 9%
patients with improvement in exercise capacity, pVO2 of ≥1.5 mL/kg/min ([1]; aficamten group, week 24): 47%
patients with improvement of ≥1 NYHA functional class and/or ≥10 point increase in KCCQ-CSS (symptomatic response) ([1]; aficamten group, week 24): 71%
patients meeting responder endpoint (pVO2 ≥1.5 mL/kg/min and ≥1 NYHA improvement, or pVO2 ≥3.0 mL/kg/min and no worsening in NYHA) ([1]; aficamten, Week 24): 42% and 42.3%
patients who achieved pVO2 of ≥1.5 mL/kg/min and ≥1 improvement in NYHA class ([1]; aficamten, Week 24): 31%
patients with pVO2 ≥3.0 mL/kg/min and no worsening in NYHA ([1]; aficamten, Week 24): 26%
patients who resolved their symptoms completely (NYHA class I) ([1]; end of the treatment period): close to half of patients
symptomatic responders with improvement in both NYHA and KCCQ [1, 5]: 51%
symptomatic responders with ≤10 point improvement in KCCQ but ≥1 improvement in NYHA functional class [1, 5]: 31%
symptomatic responders with ≥10 point improvement in KCCQ-CSS and no improvement in NYHA class [1, 5]: 18%
Common Rate Difference (vs. Placebo) ([1]; pVO2/NYHA composite responder): 29
change in KCCQ-OSS after treatment withdrawal [2, 6]: −16.2±19.0
change in SAQ-OSS after treatment withdrawal [2, 6]: −17.4±21.4
24-week improvement in KCCQ-OSS (mean±SD) ([2]; aficamten group): 13.3±16.3
24-week improvement in SAQ-SS (mean±SD) ([2]; aficamten group): 11.6±17.4
patients with very large improvements (≥20 points) in KCCQ-OSS ([2]; aficamten-treated, week 24): 29.7%
patients with very large improvements (≥20 points) in SAQ-SS ([2]; aficamten-treated, week 24): 31.2%
heterogeneity of treatment benefit (KCCQ-OS, SAQ-SS) across subgroups incl. beta-blocker use at baseline ([2]; human, in vivo): No heterogeneity of treatment benefit
SAQ-SS improvement with aficamten ([2]; subgroup baseline SAQ-SS 75-100): 4.2
greater change with aficamten in SAQ-SS ([2]; subgroup baseline SAQ-SS<50): 15.6 points
very large improvement in KCCQ-OSS, NNT ([2]; vs placebo): 5.8
very large improvement in SAQ-SS, NNT ([2]; vs placebo): 5.8
Peak VO2 ([3]; Baseline): 18.4 mL/min/kg
VO2 recovery 12.5% ([3]; Baseline): 45 s
VO2 recovery 25% ([3]; Baseline): 66 s
VO2 recovery 50% ([3]; Baseline): 115 s
VO2 recovery delay ([3]; Baseline): 19 s
Peak VO2, Adjusted Δ [3, 7]: 1.7 mL/min/kg
VO2 recovery 12.5%, Adjusted Δ [3, 7]: -8 s
VO2 recovery 25%, Adjusted Δ [3, 7]: -7 s
VO2 recovery 50%, Adjusted Δ [3, 7]: -8 s
VO2 recovery delay, Adjusted Δ [3, 7]: -4 s
Peak VO2 ([3]; Week 24): 20.2 mL/min/kg
VO2 recovery 12.5% ([3]; Week 24): 38 s
VO2 recovery 25% ([3]; Week 24): 60 s
VO2 recovery 50% ([3]; Week 24): 107 s
VO2 recovery delay ([3]; Week 24): 15 s
improvement in pVO2 ([3]; aficamten group, W24): 9%
improvement in t12.5% (VO2Rec delay) ([3]; aficamten group, W24): 18%
improving t12.5% by ≥15 seconds, NNT ([3]; aficamten vs placebo): 4.8
improving t12.5% by ≥15 seconds, OR ([3]; aficamten vs placebo): 3.68
Peak VO2, Absolute Δ [3, 8]: 1.8 mL/min/kg
VO2 recovery 12.5%, Absolute Δ [3, 8]: -7 s
VO2 recovery 25%, Absolute Δ [3, 8]: -6 s
VO2 recovery 50%, Absolute Δ [3, 8]: -8 s
VO2 recovery delay, Absolute Δ [3, 8]: -4 s
